Test results from patent US20020058628A1, “Antioxidants and intracellular glutathione raising agents for therapeutic treatments” (priority 1998, published 2002).
Entries after “also recorded” stand apart in the source; their conditions may differ.

Columns and labels:
oligodendrocytes = experiment: Rescue of purified oligodendrocytes from apoptosis induced by switch to DMEM alone (trophic factor withdrawal); settings: for enhancement of survival factor (IFN-γ) activity compared with NAC: co-exposure with survival factor
Experimental: After 3 days of growth in DMEM-BS, the resulting cultures of pure oligodendrocytes were switched to DMEM alone, a condition that induces apoptosis unless cells are exposed to appropriate growth factors.
Cells were then switched to DMEM alone, supplemented with 10, 50 or 500 u/ml of interferon-γ, and the number of surviving cells present after a further three days was determined by MTT staining.
After 3 days in DMEM-BS, the resulting cultures of pure oligodendrocyte were switched to DMEM alone to which was added progesterone+/−1 mM NAC (FIG. 9).
After 3 days in DMEM-BS, the resulting cultures of pure oligodendrocytes were switched to DMEM alone to which was added 10 μM Trolox+/−1 mM NAC (FIG. 10).
After 3 days in DMEM-BS, the resulting cultures of pure oligodendrocyte were switched to DMEM alone to which was added (a) progesterone (63 ug/ml)+NAC (1 mM)+trolox (100 uM)+Vitamin C (10 uM) (“combination”) or (b) CNTF (10 ng/ml)+IGF-1 (50 ng/ml)+NT-3 (5 ng/ml) (“combination”).
In all conditions, the 100% value corresponds to the cell survival seen in cultures of oligodendrocyte not subjected to trophic factor withdrawal.
After 3 days in DMEM-BS, the resulting cultures of pure oligodendrocytes were switched to DMEM alone to which was added progesterone.
Purified oligodendrocytes were generated and grown as in previous examples. 3 days after plating, cells were switched either directly to the indicated conditions (open bars) or were first switched to DMEM alone for 24 hr before the indicated factors were added in an attempt to rescue the cells (black bars). Cells were counted 3 days after switch to the indicated conditions.

0-2A progenitor cells = experiment: PDGF-induced division of purified 0-2A progenitor cells (BrdU incorporation, total cell number); type: cell-based, rat
Experimental: The effect of NAC on generation of 0-2A progenitors and oligodendrocytes was examined in cultures of purified 0-2A progenitors (prepared as in Example IA) exposed to platelet-derived growth factor (PDGF), the best-characterized mitogen for 0-2A progenitor cells.
NAC enhances the division-inducing effects of platelet-derived growth factor (PDGF). Purified 0-2A progenitor cells were plated on PLL-coated coverslips at a density of 3,000 cells per cover slip and exposed to PDGF (a known mitogen for these cells) at the indicated concentrations. In addition, cells were exposed to NAC at a variety of concentrations; the effects of 1 mM NAC are illustrated.
As shown previously, induction of DNA synthesis and increases in cell number by PDGF was dose-dependent.

embryonic kidney cells = experiment: EGF-induced proliferation of embryonic kidney cells; type: cell-based, rat; settings: all EGF concentrations examined
Experimental: FIG. 7 was analyzed as for FIG. 1(B), but used embryonic kidney cells. The cells grown in the 96-well trays were derived by dissociation of kidney rudiments from 11 days embryonic rats. Cells were grown in DMEM-BDS+/−epidermal growth factor (at the concentrations indicated)+/−NAC.

spinal ganglion neurons = experiment: Neurite outgrowth of spinal ganglion neurons on laminin or L1; type: cell-based, rat; settings: 24 hours, NGF added
From the text: To determine whether compounds that are able to raise intracellular thiol levels are able to enhance the efficacy of yet a different group of cellular signaling systems, we examined the effects of NAC supplementation on the promotion of neurite outgrowth by laminin and by L1. We first determined suboptimal concentrations for the effect of these cellular adhesion molecules, which were attached to tissue culture plastic surfaces in two different manners. Laminin was directly attached to the tissue culture surface with a cross-linking chemistry that preserves the structure of extracellular matrix molecules. L1 was attached as a dimer chimera, cross-linked by an Fc region from a human immunoglobulin molecule, by first adsorbing to the plastic surface an antibody directed against the human immunoglobulin Fc domain, followed by absorption of the L1 dimer to this surface. To promote neuronal survival, nerve growth factor (NGF), the survival factor of the spinal ganglion neurons used in this experiment, was also added at different concentrations. […] After 24 hours cultures were stained with an antibody to beta-III-tubulin and neurite length per neuron was measured.

[1] = system: embryonic sensory neurons; experiment: Rescue of embryonic sensory neurons from apoptosis by NGF+NAC; type: cell-based; settings: NAC + 1 or 10 ng/ml NGF on days 1 and 2, labeled on day 3; depending on NAC and NGF concentrations
Experimental: Cultures of embryonic sensory neurons were generated according to methods described in Groves et al., Dev. Biol., 159:87-104, (1993), the contents of which are incorporated herein by reference. The cells were exposed to sub-optimal doses of NGF. As shown in FIG. 4 cultures exposed to NAC and either 1 or 10 ng/ml NGF on days 1 and 2 and labeled on day 3 contained 300-1000% more neurons than those exposed to NGF alone, depending upon the concentrations of NAC and NGF applied.
Neurons were defined by morphology and by labeling with the TUJI antibody against β-tubuli (Groves, A. K., et al., Dev. Biol., 159:87-104 (1993); Moody, S. Q., et al., J. Comp. Neurol., 279:567-580 (1989)) cultures were in DMEM-BS. There was no BrdU labeling of neurons, nor was there any correlation between the extent of BrdU labeling in non-neuronal populations and the number of neurons present (data not shown). Analysis of DNA synthesis by BrdU incorporation (Gatzner, H. G., et al., Science, 318:474-475 (1982) confirmed that this increase in neuronal number was not due to cell division, strongly implicating differential cell death as the reason for the difference.
Values shown are means+/−SD for quadruplicate coverslips from the one of four experiments, all of which yielded similar results.

Molecule: Cc1c(C)c2c(c(C)c1O)CCC(C)(C(=O)O)O2 (centres unmarked) [Trolox]
- Survival (as % of DMEM-BS control) (oligodendrocytes; Trolox 100 uM alone): 6 ± 5%
- enhancement of survival factor (IFN-γ) activity compared with NAC (oligodendrocytes): similar, but lesser effects

Molecule: O=C1O[C@H]([C@@H](O)CO)C(O)=C1O [Vitamin C]
- Survival (as % of DMEM-BS control) (oligodendrocytes; 10 uM Vit C alone, Example I(J), DMEM alone, 3 days): 2 ± 3%
- Survival (as % of DMEM-BS control) (oligodendrocytes; VitC 10 uM alone, Example I(K)): 1 ± 1%
- enhancement of survival factor (IFN-γ) activity compared with NAC (oligodendrocytes): similar, but lesser effects

Molecule: IGF-I: oligodendrocyte survival factor, growth factor
- Survival (as % of DMEM-BS control) (oligodendrocytes; IGF-I 0.1 ng/ml, DMEM alone, 3 days): 1 ± 1%

Molecule: CC(=O)[C@H]1CC[C@H]2[C@@H]3CCC4=CC(=O)CC[C@]4(C)[C@H]3CC[C@]12C [Progesterone, progesterone]
- Survival (as % of DMEM-BS control) (oligodendrocytes; Progesterone 6.3 ng/ml alone): 4 ± 1%
- Survival (as % of DMEM-BS control) (oligodendrocytes; Progesterone .63 ng/ml alone): 0%

Molecule: PDGF
- induction of DNA synthesis and increases in cell number by PDGF (0-2A progenitor cells; PDGF at the indicated concentrations): dose-dependent

Molecule: CC(=O)N[C@@H](CS)C(=O)O [NAC, N-acetylcysteine]
- extent of survival, NAC in combination with Trolox (oligodendrocytes; 1 mM NAC + 10 μM Trolox, DMEM alone, 3 days): highly significant increases (**)
- extent of survival, NAC in combination with Vitamin C (oligodendrocytes; 1 mM NAC + Vitamin C, DMEM alone, 3 days): highly significant increases (**)
- extent of survival, NAC in combination with progesterone (oligodendrocytes; 1 mM NAC + progesterone, DMEM alone, 3 days, no RTK/RawTK agonists): highly significant increases (**)
- extent of survival with CNTF in presence of NAC versus CNTF by itself (oligodendrocytes; 1 mM NAC + various concentrations of CNTF, DMEM alone, 3 days): significant increases
- extent of survival with IGF-1 in presence of NAC versus IGF-1 by itself (oligodendrocytes; 1 mM NAC + various concentrations of IGF-1, DMEM alone, 3 days): significant increases
- cell survival with NAC alone (oligodendrocytes; 1 mM NAC alone, DMEM alone, 3 days): did not promote oligodendrocyte survival; also recorded: did not promote cell survival
- oligodendrocyte survival, cells switched directly to the indicated conditions (oligodendrocytes; Example I-(L), counted 3 days after switch): not effective at supporting oligodendrocyte survival
- Survival (as % of DMEM-BS control) (oligodendrocytes; NAC 1 mM alone): 2 ± 1%
- extent of survival obtained with IFN-γ when NAC is applied together (oligodendrocytes; NAC 1 mM together with IFN-γ): dramatically enhanced the extent of survival obtained
- effect of NAC on EGF-induced proliferation (cell number) (embryonic kidney cells): enhanced the proliferative effects of EGF
- ability of PDGF to induce DNA synthesis (BrdU incorporation) on addition of NAC (0-2A progenitor cells; 1 mM NAC + PDGF): marked increase
- total number of cells generated by PDGF-induced cell division on addition of NAC (0-2A progenitor cells; 1 mM NAC + PDGF): marked increase
- induction of cell division by NAC alone (0-2A progenitor cells; NAC alone, BrdU incorporation and total cell number): had no effect on the induction of cell division
- neurite length on L1 with NAC versus without NAC (spinal ganglion neurons; L1 2 micrograms/ml plating concentration): enhanced
- neurite length on laminin with NAC versus without NAC (spinal ganglion neurons; laminin 2 micrograms/ml plating concentration): enhanced
- more neurons than with NGF alone [1]: 300-1000%

B1: interferon-γ: interferon-gamma, survival factor for oligodendrocytes (protein, UniProt P01579 24-161, looked up)
Interferon gamma: QDPYVKEAENLKKYFNAGHSDVADNGTLFLGILKNWKEESDRKIMQSQIVSFYFKLFKNFKDDQSIQKSVETIKEDMNVKFFNSNKKKRDDFEKLTNYSVTDLNVQRKAIHELIQVMAELSPAAKTGKRKRSQMLFRG
- oligodendrocyte survival with interferon-γ (oligodendrocytes; 10, 50 or 500 u/ml, DMEM alone, 3 days, MTT staining): promoted oligodendrocyte survival in a dose-dependent manner
